From PubChem BioAssay AID248 (DTP/NCI, 2004)
“And” between values parts separate entries of the source, which are not always exact repeats. Identical values can stand only once. Toxic doses and inconclusive results are not listed. Rule as the data show it: active = T/C of 150% or more; inactive = T/C below 125%.

System: L1210 leukemia ip in BDF1 mice, survival T/C
Assay: NCI In Vivo Anticancer Drug Screen. Data for tumor model L1210 Leukemia (intraperitoneal) in B6D2F1 (BDF1) mice
Settings: endpoint: mean survival time, higher = longer survival
Method in brief: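 Tumor cells were implanted, animals were treated, and survival was followed. The result divides the treated measurement by the vehicle-control measurement.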

[1] = dose: 100.0 mg/kg/injection, schedule: Q01DX009 (ip), vehicle: Klucel (hydroxypropylcellulose) (HPC)
[2] = dose: 100.0 mg/kg/injection, schedule: Q04DX003 (ip), vehicle: Klucel (hydroxypropylcellulose) (HPC)
[3] = dose: 200.0 mg/kg/injection, schedule: Q01DX009 (ip), vehicle: Klucel (hydroxypropylcellulose) (HPC)
[4] = dose: 200.0 mg/kg/injection, schedule: Q04DX003 (ip), vehicle: Klucel (hydroxypropylcellulose) (HPC)
[5] = dose: 400.0 mg/kg/injection, schedule: Q01DX009 (ip), vehicle: Klucel (hydroxypropylcellulose) (HPC)
[6] = dose: 400.0 mg/kg/injection, schedule: Q04DX003 (ip), vehicle: Klucel (hydroxypropylcellulose) (HPC)
[7] = dose: 100.0 mg/kg/injection, schedule: Q01DX009 (ip), vehicle: saline with Tween-80
[8] = dose: 200.0 mg/kg/injection, schedule: Q01DX009 (ip), vehicle: saline with Tween-80
[9] = dose: 400.0 mg/kg/injection, schedule: Q01DX009 (ip), vehicle: saline with Tween-80
[10] = dose: 100.0 mg/kg/injection, schedule: Q04DX002 (ip), vehicle: Klucel (hydroxypropylcellulose) (HPC)
[11] = dose: 200.0 mg/kg/injection, schedule: Q04DX002 (ip), vehicle: Klucel (hydroxypropylcellulose) (HPC)
[12] = dose: 400.0 mg/kg/injection, schedule: Q04DX002 (ip), vehicle: Klucel (hydroxypropylcellulose) (HPC)

Measured: T/C

COc1ccc(C(=Nc2ccc(C)cc2)c2ccccc2)cc1
inactive: dose: 12.0 mg/kg/injection, schedule: Q01DX009 (ip), vehicle: Klucel (hydroxypropylcellulose) (HPC) 105 % of control | dose: 12.5 mg/kg/injection, schedule: Q01DX009 (ip), vehicle: Klucel (hydroxypropylcellulose) (HPC) 102 % of control | dose: 25.0 mg/kg/injection, schedule: Q01DX009 (ip), vehicle: Klucel (hydroxypropylcellulose) (HPC) 105 % of control | dose: 50.0 mg/kg/injection, schedule: Q01DX009 (ip), vehicle: Klucel (hydroxypropylcellulose) (HPC) 97 % of control and 113 % of control | [1] 122 % of control | [2] 101 % of control | [3] 107 % of control | [4] 98 % of control | [5] 107 % of control | [6] 98 % of control

O=C(Nc1ccc(Cl)cc1)Oc1ccc(Br)cc1Br
inactive: [1] 100 % of control | [3] 96 % of control | [5] 104 % of control

O=C1C=CC(=O)N1c1ccc(Cl)cc1
inactive: dose: 10.0 mg/kg/injection, schedule: Q01DX009 (ip), vehicle: Klucel (hydroxypropylcellulose) (HPC) 100 % of control | dose: 10.0 mg/kg/injection, schedule: Q04DX003 (ip), vehicle: other 97 % of control | dose: 20.0 mg/kg/injection, schedule: Q01DX009 (ip), vehicle: Klucel (hydroxypropylcellulose) (HPC) 88 % of control | dose: 20.0 mg/kg/injection, schedule: Q04DX003 (ip), vehicle: other 95 % of control | dose: 40.0 mg/kg/injection, schedule: Q04DX003 (ip), vehicle: other 95 % of control

Cn1nnnc1N/N=C/c1ccccc1
inactive: [7] 98 % of control | [8] 95 % of control | [9] 95 % of control

O[Si](c1ccccc1)(c1ccccc1)c1ccccc1
inactive: [7] 95 % of control | dose: 100.0 mg/kg/injection, schedule: Q04DX002 (ip), vehicle: saline with Tween-80 100 % of control | [8] 88 % of control | dose: 200.0 mg/kg/injection, schedule: Q04DX002 (ip), vehicle: saline with Tween-80 96 % of control | [9] 91 % of control | dose: 400.0 mg/kg/injection, schedule: Q04DX002 (ip), vehicle: saline with Tween-80 87 % of control

CC(C)(C)SCCN1C(=O)C2C3CCC(O3)C2C1=O (centres undefined)
inactive: [10] 104 % of control | [11] 100 % of control | [12] 107 % of control

O=P(c1ccccc1)(c1ccccc1)N1CCCCC1
inactive: [2] 101 % of control | [4] 96 % of control | [6] 93 % of control

CCC(C)Sc1ccc(C)cc1 (centres undefined)
inactive: dose: 75.0 mg/kg/injection, schedule: Q01DX009 (ip), vehicle: Klucel (hydroxypropylcellulose) (HPC) 98 % of control | dose: 150.0 mg/kg/injection, schedule: Q01DX009 (ip), vehicle: Klucel (hydroxypropylcellulose) (HPC) 102 % of control | dose: 300.0 mg/kg/injection, schedule: Q01DX009 (ip), vehicle: Klucel (hydroxypropylcellulose) (HPC) 93 % of control

CC1CC(C)(C)N=C(C(C)CC(C)(C)C)O1 (centres undefined)
inactive: dose: 100.0 mg/kg/injection, schedule: Q04DX003 (ip), vehicle: saline 105 % of control | dose: 200.0 mg/kg/injection, schedule: Q04DX003 (ip), vehicle: saline 94 % of control

O=C1NC2Cc3ccccc3CC12 (centres undefined)
inactive: [10] 102 % of control | [11] 100 % of control | [12] 86 % of control

C#CCOCCC(C(=O)O)C(=O)O
inactive: dose: 100.0 mg/kg/injection, schedule: Q01DX009 (ip), vehicle: acetone 90 % of control | dose: 100.0 mg/kg/injection, schedule: Q04DX003 (ip), vehicle: acetone 101 % of control | dose: 200.0 mg/kg/injection, schedule: Q01DX009 (ip), vehicle: acetone 97 % of control | dose: 200.0 mg/kg/injection, schedule: Q04DX003 (ip), vehicle: acetone 101 % of control | dose: 400.0 mg/kg/injection, schedule: Q04DX003 (ip), vehicle: acetone 92 % of control

O=C1Nc2ccccc2/C1=C/Cl
inactive: dose: 6.25 mg/kg/injection, schedule: Q04DX002 (ip), vehicle: saline with Tween-80 96 % of control | dose: 12.5 mg/kg/injection, schedule: Q04DX002 (ip), vehicle: saline with Tween-80 100 % of control | dose: 25.0 mg/kg/injection, schedule: Q04DX002 (ip), vehicle: saline with Tween-80 103 % of control
